Measured values taken from PubChem BioAssay AID489040 (Sanford-Burnham Center for Chemical Genomics, 2010).
Activity calls are given as the source filed them.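 Rule for the calls: active = mean half-maximal activating concentration from the dose-response fit at or below a set limit; inactive = the rest.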

Target: CHO-XBP1 luciferase reporter, IRE1-XBP1 UPR activation
Assay: activators of IRE1-XBP1 UPR arm, dose response, counter-screen for apoptotic UPR arm activators, CHO-XBP1 cells, luminescence (AID 489040);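 note: reporter read after six hours of compound exposure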

Row | Compound | EC50
1 | O=[N+]([O-])c1ccc(C=Nc2ccc(Cl)c([N+](=O)[O-])c2)s1 | > 80 µM (inactive)
2 | Oc1ccc(/C=N/Nc2nc(N3CCCC3)nc(N3CCCC3)n2)cc1O | 18 µM
3 | O=C(NCc1cccnc1)/C(=C/c1ccc(-c2ccc(Cl)cc2)o1)S(=O)(=O)c1ccccc1 | > 80 µM (inactive)
4 | Cc1ccc(-c2nnc(-c3ccc(NC(=O)c4cccs4)cc3)o2)cc1 | 11.9 µM
5 | Cc1ccc(-c2cc(NC(=O)CCl)n(-c3ccccc3)n2)cc1 | > 80 µM (inactive)
6 | COc1cc(OC)cc(C(=O)NC(=S)Nc2cc3oc4ccccc4c3cc2OC)c1 | > 80 µM (inactive)
7 | O=[N+]([O-])c1ccc(N/N=C/c2cccc(O)c2O)c(S(=O)(=O)N2CCOCC2)c1 | inactive
8 | COc1ccc(C(=O)C(CN2CCCC2)c2ccccc2)cc1 (configuration not stated) | > 80 µM (inactive)
9 | COc1ccc(-c2cc(=O)oc3c(C)c(OC(=O)c4cccs4)ccc23)cc1 | > 80 µM (inactive)
10 | CC1(C)C=Cc2c(c3c(c4c(=O)c(-c5ccc(O)cc5)coc24)OC(C)(C)CC3)O1 | inactive
11 | O=[N+]([O-])/C=C\c1ccc(N2CCOCC2)cc1 | > 80 µM (inactive)
12 | Nc1c(C(=O)Nc2ccc(S(=O)(=O)N3CCCC3)cc2)sc2nc3ccc(OC(F)(F)F)cc3cc12 | > 80 µM (inactive)
13 | Cc1nn(Cc2c(Cl)cccc2Cl)c(C)c1NC(=O)c1cn(-c2ccccc2)nc1-c1ccccc1 | > 80 µM (inactive)
14 | Cc1nc([N+](=O)[O-])c(Br)n1CC(=O)c1ccc(Cl)cc1 | > 80 µM (inactive)
15 | C/C(=N\NC(=O)c1ccc(F)cc1)c1ccccn1 | > 80 µM (inactive)
16 | Cc1[nH]c2ccccc2c1CN1CCC(Cc2ccccc2)CC1 | > 80 µM (inactive)
17 | COc1ccc(N=Nc2ccc(O)c3ncccc23)cc1 | inactive
18 | Cc1cc(C(=O)CCl)c(C)n1Cc1ccco1 | > 80 µM (inactive)
19 | Clc1ccc(-n2nnnc2Sc2ncnc3sccc23)cc1 | > 80 µM (inactive)
20 | Cc1cccnc1Nc1nc(-c2ccc(O)c(O)c2)cs1 | inactive
21 | Oc1ccc(-c2csc(Nc3cccc4ccccc34)n2)cc1O | > 80 µM (inactive)
22 | Oc1ccc(/C=N/Nc2cc(N3CCCC3)nc(N3CCCC3)n2)cc1O | inactive
23 | CCOC(=O)/C(=C\c1ccccc1)C(=O)c1cc(C(C)=O)c(Nc2ccccc2)s1 | > 80 µM (inactive)
24 | Oc1ccc(-c2nc(-c3ccc(O)c(O)c3)cs2)cc1 | > 80 µM (inactive)

Row | Compound | EC50
25 | CSc1nnc(NC(=O)c2nc(S(=O)(=O)Cc3cccc(C)c3)ncc2Cl)s1 | > 80 µM (inactive)
26 | COc1cccc(/C=N/Nc2nc(Nc3ccccc3)nc(-n3nc(C)cc3C)n2)c1O | 5.09 µM
27 | CCOc1cc(NC(=O)CCl)c(OCC)cc1NC(=O)CCl | > 80 µM (inactive)
28 | O=C(/C=C/c1ccc(O)c(O)c1)c1ccccc1O | > 80 µM (inactive)
29 | CCc1cccc2c(C(=O)CCl)c[nH]c12 | > 80 µM (inactive)
30 | Cc1cc(C)n(-c2nc(NC(C)(C)C)nc(NC(C)(C)C)n2)n1 | > 80 µM (inactive)
31 | Cc1ccccc1/C=C/C(=O)c1ccc([N+](=O)[O-])o1 | > 80 µM (inactive)
32 | Cc1nc([N+](=O)[O-])c(Br)n1CC(=O)c1ccc(Br)cc1 | > 80 µM (inactive)
33 | COc1ccc(O)c(/C=N/Nc2nc(Nc3ccccc3)nc(-n3nc(C)cc3C)n2)c1 | > 80 µM (inactive)
34 | CCC(=O)Nc1ccc(C(=O)Cn2ncc(Cl)c(Cl)c2=O)cc1 | > 80 µM (inactive)
35 | Cc1cc(C)nc(S/C=C/C(=O)c2ccccc2)n1 | > 80 µM (inactive)
36 | Cc1ccccc1CS(=O)(=O)c1ncc(Cl)c(C(=O)Nc2ccc(F)cc2)n1 | > 80 µM (inactive)
37 | FC(F)(F)c1nnc(-c2ccccc2)nc1Sc1ccccc1 | > 80 µM (inactive)
38 | COc1cccc2sc(Nc3nc(C)c(C(C)=O)s3)nc12 | > 80 µM (inactive)
39 | COc1ccccc1-c1cc(C(F)(F)F)nc(S(C)(=O)=O)n1 | > 80 µM (inactive)
40 | Cc1cc(C(=O)c2ccc(Cl)cc2)c(NC(=O)CCl)s1 | > 80 µM (inactive)
41 | CCOc1ccc(NC(=S)NC(=O)/C=C/c2ccc(OC)c(OC)c2)c([N+](=O)[O-])c1 | > 80 µM (inactive)
42 | Oc1ccc2ccccc2c1N=Nc1ccccn1 | > 80 µM (inactive)
43 | C/C(=N\NC(=O)c1cccc(Br)c1)c1ccccn1 | > 80 µM (inactive)
44 | O=C(COc1ccc2ccccc2c1)N1CCN(Cc2c[nH]c3ccccc23)CC1 | > 80 µM (inactive)
45 | CC1(C)CC(=O)C(=Cc2cn(-c3ccccc3)nc2-c2ccc(Cl)cc2)C(=O)C1 | > 80 µM (inactive)
46 | CS(=O)(=O)c1nc(-c2ccccc2)cc(-c2ccccc2)c1C#N | > 80 µM (inactive)
47 | Cn1c(=O)c2c(SCC(=O)Nc3ccccc3F)nc(-c3ccccc3F)nc2n(C)c1=O | 10.9 µM
48 | CS(=O)(=O)c1nc(-c2ccc(Br)cc2)cc(-c2ccccc2)c1C#N | > 80 µM (inactive)

Row | Compound | EC50
49 | O=C(COC(=O)c1ccccc1C(=O)c1ccc(Cl)c([N+](=O)[O-])c1)NC1CCCCCC1 | > 80 µM (inactive)
50 | CCOC(=O)c1c(C)oc2c1c(C(c1cccnc1)N1CCOCC1)c(O)c1ccccc12 (configuration not stated) | > 80 µM (inactive)
51 | Cn1nc(C(F)(F)F)c(/C=N/OC(=O)c2ccccc2)c1SCc1ccccc1Cl | 6.11 µM
52 | O=[N+]([O-])c1ccc(Sc2nnnn2-c2ccccc2)nc1 | > 80 µM (inactive)
53 | O=C(Nc1ccc(Cc2ccncc2)cc1)c1ccc([N+](=O)[O-])o1 | > 80 µM (inactive)
54 | S=C(Nc1ccccc1)c1ccccn1 | > 80 µM (inactive)
55 | Cc1ccc2c(C(=O)CCl)c(C)[nH]c2c1 | > 80 µM (inactive)
56 | O=C(N/N=C/c1ccccn1)c1cc([N+](=O)[O-])cc([N+](=O)[O-])c1 | > 80 µM (inactive)
57 | COc1ccc(/C=C/C(=O)Oc2ccc(C)cc2)cc1 | > 80 µM (inactive)
58 | Oc1ccc(/C=N/N(c2ccccc2)c2ccccc2)cc1O | inactive
59 | CCOc1cccc(C(=O)Nc2cccc(-c3nnc(-c4ccc(C)cc4)o3)c2)c1 | > 80 µM (inactive)
60 | CCn1cc(C(=O)NC(=S)Nc2sc3c(c2C(=O)OC)CCCCCC3)cn1 | inactive
61 | O=C(CCl)Nc1ccc(-c2ccccc2)cc1 | > 80 µM (inactive)
62 | O=C(/C(=C/c1cccc(Cl)c1)c1nc2ccccc2[nH]1)c1ccccc1 | > 80 µM (inactive)
63 | CC1=CC(=O)C(C(C)C)=C/C1=N/OC(=O)c1cccc([N+](=O)[O-])c1 | > 80 µM (inactive)
64 | O=C1NC(=O)C(=Cc2ccc(-c3ccc(Cl)cc3)o2)C(=O)N1 | > 80 µM (inactive)
65 | COc1nc(N)nc(NC(=O)c2cccs2)c1N=O | > 80 µM (inactive)
66 | Cc1nc2ccccc2n1-c1nc(-c2ccco2)cc(C(F)(F)F)n1 | > 80 µM (inactive)
67 | Cc1cccc(CS(=O)(=O)c2ncc(Cl)c(C(=O)Nc3ccc(F)cc3)n2)c1 | > 80 µM (inactive)
68 | CN(/N=C\c1ccc(O)c(O)c1)c1nc(-c2ccccc2)cc(-c2ccccc2)n1 | 4.96 µM
69 | FC(F)(F)c1nnc2c(Sc3ccc(Cl)cc3)nc3ccccc3n12 | > 80 µM (inactive)
70 | CN(C)C(=S)N=Nc1[nH]c2ccccc2c1O | > 80 µM (inactive)
71 | CC1(C)CC(=O)C(=Cc2cn(-c3ccccc3)nc2-c2ccccc2)C(=O)C1 | > 80 µM (inactive)
72 | Oc1ccc(/C=N/Nc2ncnc3c2ncn3Cc2ccccc2)cc1O | inactive
